In US20030023104A1, “Therapeutic compound - fatty acid conjugates” (COMMONWEALTH SCIENTIFIC AND INDUSTRIAL RESEARCH ORGANISATION, priority 1995, published 2003):
“And” between values parts separate entries of the source, which are not always exact repeats. Identical values can stand only once. Like-named read-outs stand apart in the source and are kept apart here.

What was measured:
[1] = tested on: HIV-I MN; test: Anti HIV activity, Ag gp120 production in infected C8166 cells; type: cell-based
Experimental: (§1) The anti-HIV activities of AZT-Suc-GTP1 and AZT-Suc-GTP2 were also tested. Infected cells were incubated for 5 days with compound. Compounds were dissolved in DMSO and 5-fold dilutions were used. The following parameters were measured: syncytia formation, virus antigen gp120 production, cell survival. Cytotoxicity is also measured in uninfected cells.
(§2) C8166 (human T-lymphoblastoid cells) infected with HIV-I MN
(§3) EC50=concentration which reduces Ag gp120by 50% in infected cell cultures.

[2] = tested on: C8166 (human T-lymphoblastoid cells); test: Cell growth (cytotoxicity) in C8166 cells; type: cell-based
Experimental: as §1, §2
(§4) IC50=concentration of drug which reduces cell growth by 50%.

[3] = tested on: JM (semi mature human T-cell from lymphoblastoid leukemia); test: Cell growth (cytotoxicity) in JM cells; type: cell-based
Experimental: as §1
(§5) JM (semi mature human T-cell from lymphoblastoid leukemia) infected with HIV-I U4550
as §4

[4] = tested on: HIV-I U4550; test: Anti HIV activity, Ag gp120 production in infected JM cells; type: cell-based
Experimental: as §1, §5, §3

[5] = tested on: human peripheral blood mononuclear cells; test: Cytotoxicity of chlorambucil and conjugates, MTS assay, PBMC; type: cell-based; conditions: for IC50: ethanol delivery
Experimental: Human peripheral blood mononuclear cells (PBMC) were isolated from one healthy donor by centrifugation on Ficoll-Paque (Pharmacia). Cells were seeded into a 96-well plates at a density of 2×10^5 cells/200 μl complete RPMI ± drug and cultured for 40 h.
(§6) Each concentration was tested in at least 3 wells.

[6] = tested on: JURKAT cells (acute T cell human leukemia)
Experimental: The cytotoxicity of chlorambucil and chlorambucil fatty acid conjugates (CGTP1. P2 and P3) were tested in vitro with JURKAT cells (acute T cell human leukemia). Cells were incubated with drug and viability was determined by a colourmetric proliferation test. Cytotoxicity towards other cells lines was also tested (PC3 human prostate cancer cells, B16 mouse melanoma cells and human peripheral blood mononuclear cells).
JURKAT cells were seeded into 96-well plates at a density of 1.6×10^4 cells/200 μl complete RPMI ± drug and cultured for 64 h. A 1:3 split of confluent PC3 cells in a 75 cm^2 flask were seeded into a 96-well plate and cultured for 48 h in complete RPMI. Media was removed and complete RPMI ± drug was added to wells. Cells were further cultured for 72 h.
i) Ethanol. Drugs were dissolved in ethanol and added to culture media. The final concentration of ethanol in media was no greater than 1% (v/v). This delivery was used for experiments with JURKAT, PBMC, PC3 and B16 cell types.
ii) Coating of plates. Drugs were dissolved in ethanol and aliquots (up to 40 μl) were added to 90% (v/v) isopropanol. Solution (50 μl) was then added to wells of a 96-well plate and the solvent evaporated by heating at 37° C. Media ± cells was then added. This delivery was used for some experiments with JURKAT cells.
Viability was determined using the MTS assay (CellTiter 96TM AQueous Non-Radioactive Cell Proliferation Assay) from Promega. Reagent (40 μl) was added to each well and absorbance values at 490 nm were determined 1 to 4 h later. The effect of drug on cell viability was compared to cultures set up containing no drug (100% viability). Wells containing no cells were used to control for background absorbance (0% viability). Each concentration was tested in at least 3 wells. Concentrations necessary to cause a 50% inhibition of cellular growth of control cells (IC50) were calculated by linear regression.

[7] = tested on: B16 mouse melanoma cells; test: Cytotoxicity of chlorambucil and conjugates, MTS assay, B16; type: cell-based; conditions: for IC50: B16, ethanol delivery, 48 h
Experimental: Media was removed and complete EMEM ± drug was added to wells. Cells were further cultured for 48 h.
as §6

[8] = tested on: PC3 human prostate cancer cells; test: Cytotoxicity of chlorambucil and conjugates, MTS assay, PC3; type: cell-based; conditions: for IC50: PC3, ethanol delivery, 72 h
Experimental: Cells were further cultured for 72 h.
as §6

[9] = tested on: UVB induced oedema; test: UVB erythema assay (net skin fold thickness); type: in vivo, Skh-1 hairless albino female mice
[10] = tested on: UVB induced immunosuppression; test: Contact Hypersensitivity Assay (oxazolone, net ear swelling); type: in vivo, mice; conditions: 0.5% (0.5 mg/mouse) painted within 10 minutes post UVB exposure, total 3 MED UVB
From the text: The assay used the method described in “Current Protocols in Immunology” (Vol 1, Section 4.2 Eds Coligan et al. (1991) NIH). The sensitiser was Oxazalone. Briefly this method was as follows:
UVB Radiation. Mice were irradiated with a single FL40SE UVB fluorescent tube (Oliphant) in a reflective batten, providing […] UVB radiation measured at target distance using an International Light IL1700 radiometer with a UVB detector sensitive between 250-315 nm. The mice received 0.1179 J/cm^2 UVB radiation, constituting 1 minimal erythemal dose (MED) as previously ascertained, on each of 3 consecutive days, being exposed unrestrained with the wire cage tops removed.
Induction of Systemic Contact Hypersensitivity. Test mice were exposed on the dorsum to 1 MED UVB radiation (or no UVB radiation) at the same hour on days 1, 2 and 3. On days 8 and 9, the mice (irradiated and non-irradiated) were sensitized by topical application to the abdominal skin of 0.1 ml of 3% (w/v) oxazolone (Sigma Chemical Co., St Louis, Mo.) freshly prepared in ethanol. On day 15, the pre-challenge ear thickness was measured using the spring micrometer, and the mice were then challenged by the application of 5 ul freshly prepared 3% oxazolone/ethanol solution to both surfaces of each pinna. Ear thickness was again measured repeatedly between 16-24 hours, and the maximum ear thickness was recorded. The net ear swelling was calculated as the difference between the average pre-challenge and the average post-challenge ear thickness for each treatment group. Statistical significance of the differences in net ear swelling between treatment groups was assessed with Student's t test.
The mice were painted with vehicle, 0.5 mg/mouse HC, 0.5 mg/mouse HC-Suc-GTP2. 1 mg/mouse 17-b HC-Suc-GTP3 or 17-b HC within 10 minutes post UVB exposure. A total of 3 MED of unshielded UVB was used. (Table 3)

[11] = tested on: B16 melanoma cells; test: Tumour Cytotoxicity Model (B16 melanoma in C57 mice); type: in vivo, C57 black mice; set-up: Mean (standard error) of B16 tumour volume adjusted for the variation in initial volume: scale not given here; conditions: for Mean (standard error) of B16 tumour volume adjusted for the variation in initial volume: statistically modified tumour volume; for B16 Tumour Volume: individual mice
Experimental: Groups of C57 black mice were given an initiation dose of 2×10^5 B16 melanoma cells as an intradermal injection. The cells were suspended in MEM without serum. The abdomen was clipped and 100 μl of cells + MEM was injected. […] The tumours were measured with a micrometer and photographed just prior to the injection of drug (day 8-10).
The cytotoxic drugs and their fatty acid conjugates were dissolved or suspended in 4:1 soy bean oil:ethyl oleate. A 10 mg/ml or a 20 mg/ml solution of each parent drug or the fatty acid conjugate made to the same molar concentration as the parent drug was then injected into the same region as the tumour at a dose of 0.5 mg or 1 mg. The tumours were then photographed, measured and re-injected every two to three days.

[12] = 5 days, read-out: IC50 (concentration of drug which reduces cell growth by 50%)
[13] = JURKAT, addition of ethanol solution to culture media
[14] = JURKAT, coating of plates (Table 8)
[15] = JURKAT, drugs coated onto plates (Table 9)

`CCCCCCCCCCCCCCCC(=O)OCC(CO)(COC(=O)CCCCCCCCCCCCCCC)NC(=O)CNC(=O)CCC(=O)OC[C@H]1O[C@@H](n2cc(C)c(=O)[nH]c2=O)C[C@@H]1N=[N+]=[N-]` [AZT-Suc-GTP2] was tested, and the “Ratio of AZT: Conjugate EC50” value ([1]; C8166 cell line) was 0.5, the EC50 ([1]; C8166 cells infected with HIV-I MN, 5 days, read-out: EC50 (concentration which reduces Ag gp120 by 50% in infected cell cultures)) was 0.032 µM and the “fold more cytotoxic than AZT” value [2] was 25. The IC50 [2, 12] was 200 µM, the “fold more cytotoxic than AZT” value [3] was 25 and the IC50 [3, 12] was 200 µM. The “Ratio of AZT: Conjugate EC50” value ([4]; JM cell line) was “approx. 0.5” and the EC50 ([4]; JM cells infected with HIV-I U4550, 5 days, read-out: EC50 (concentration which reduces Ag gp120 by 50% in infected cell cultures)) was > 200 µM.

For `CCCCCCCCCCCCCCCC(=O)OCC(CO)(CO)NC(=O)CNC(=O)CCCc1ccc(N(CCCl)CCCl)cc1` [CGTP1, Chlorambucil-Gly-Tris-Monopalmitate], the “fold increase in toxicity to normal cells (PBMC) versus chlorambucil” value ([5]; PBMC) was “approximately 5”, the “Clorambucil to CGTP1 Ratio (IC50)” value ([5]; PBMC (1)) was 6.3 and the IC50 ([5]; PBMC (1) = one donor, 40 h) was 7.1 µM. For the same compound, the “Clorambucil to CGTP1 Ratio (IC50)” value ([5]; PBMC (3)) was “approx. 4”, the IC50 ([5]; PBMC (3) = three donors) was 5.5 µM and the “Clorambucil to CGTP1 Ratio (IC50)” value ([6]; JURKAT) was 15 and 15.5. For the same compound, the IC50 [6, 13] was 6.5 µM, the IC50 [6, 14] was 8.6 µM and the IC50 [6, 15] was 8.4 µM. For the same compound, the IC50 ([6]; JURKAT, ethanol delivery, 64 h) was 6.5 µM, the “cytotoxicity to JURKAT cells (in words)” value ([6]; comparison of conjugate, equimolar mixture and GTP1 alone) was “more cytotoxic to JURKAT cells than an equimolar mixture of chlorambucil and GTP1” and the “Clorambucil to CGTP1 Ratio (IC50)” value ([7]; B16) was 1.6. For the same compound, the IC50 [7] was 23.1 µM, the “Clorambucil to CGTP1 Ratio (IC50)” value ([8]; PC3) was 15.0 and the IC50 [8] was 10.7 µM.

For `C[C@]12CCC(=O)C=C1CC[C@@H]1[C@@H]2[C@@H](O)C[C@@]2(C)[C@H]1CC[C@]2(O)C(=O)CO` [Hydrocortisone, hydrocortisone (cortisol or 17 hydroxy corticosterone), reference compound], the “protection from erythema and oedema” value ([9]; 0.5 mg/mouse topical in ethanol after 2 MED UVB, 24 h) was ~100%, the “Mean Net Skin Fold Thickness” value ([9]; 0.5 mg/mouse topical in ethanol, applied Day −5 (5 days prior to UV exposure), 2MED UVB, measured 24 h) was 102.7 ± 12.1 10^−2 mm and the “Mean Net Skin Fold Thickness” value ([9]; 0.5 mg/mouse topical, applied Day 0 after UV exposure, 2MED UVB) was 10.4 ± 8.19 10^−2 mm. For the same compound, the “Mean Net Skin Fold Thickness” value ([9]; 0.5 mg/mouse topical, applied Day −3 (3 days prior to UV exposure), 2MED UVB) was 100.9 ± 7.3 10^−2 mm, the “Mean Net Skin Fold Thickness” value ([9]; 1 mg/mouse (1% w/v) topical, applied Day 0 after UV exposure) was 7.9 ± 4.4 and the “Mean Net Skin Fold Thickness” value ([9]; 1 mg/mouse (1% w/v) topical, applied Day −3) was 62.9 ± 4.0. The “Mean Net Skin Fold Thickness” value ([9]; 1 mg/mouse (1% w/v) topical, applied Day −5) was 108.3 ± 5.1 and the “Net Ear Swelling” value [10] was 32.0 10^−2 mm.

With Chlorambucil [reference compound] the IC50 ([5]; PBMC (1) = one donor, 40 h) was 45 µM, the IC50 ([5]; PBMC (3) = three donors) was < 22 µM and the IC50 [6, 13] was 101 µM. For the same compound, the IC50 [6, 14] was 219 µM, the IC50 [6, 15] was 219 µM and the IC50 ([6]; JURKAT, ethanol delivery, 64 h) was 101 µM. The IC50 [7] was 36.5 µM, the IC50 [8] was 160 µM and the “difference in tumour volume from the Vehicle group (95% level)” value ([11]; 0.5 mg and 1.0 mg groups) was “significant difference”. For the same compound, the “Mean (standard error) of B16 tumour volume adjusted for the variation in initial volume” value (“Mean (standard error)” for short) ([11]; 13/11/95, 0.5 mg) was 3.01 (0.610), the “Mean (standard error)” value ([11]; 15/11/95, 0.5 mg) was 3.29 (0.955) and the “Mean (standard error)” value ([11]; 16/11/95, 0.5 mg) was 3.46 (1.15). For the same compound, the “Mean (standard error)” value ([11]; 17/11/95, 0.5 mg) was 3.65 (1.38), the “toxicity observed in test group” value ([11]; C57 mice, repeated injection every two to three days) was “High toxicity” and the “B16 Tumour Volume” value ([11]; Day 1, drug dose 0.5 mg injected at tumour region) was 0.5 mm^2 and 1.6 mm^2 and 8.2 mm^2 and 16.6 mm^2. The “B16 Tumour Volume” value ([11]; Day 3, drug dose 0.5 mg) was 0.5 mm^2 and 0 mm^2 and 21.8 mm^2 and 38.3 mm^2, the “B16 Tumour Volume” value ([11]; Day 5, drug dose 0.5 mg) was 0 mm^2 (2×) and 7.7 mm^2 and 108.4 mm^2 and the “B16 Tumour Volume” value ([11]; Day 6, drug dose 0.5 mg) was 0 mm^2 (2×) and 7.7 mm^2 and 125.1 mm^2. The “B16 Tumour Volume” value ([11]; Day 7, drug dose 0.5 mg) was 0 mm^2 (2×) and 5.9 mm^2 and 174.1 mm^2 and the mice died ([11]; chlorambucil test group) was 3 out of 7.
